The source of these data is patent US10857113B2, “Bezafibrate for the treatment of cancer” (Cipla Limited, priority 2016, dated 2020).

Molecules are shown by their SMILES. Like-named read-outs stand apart in the source and are kept apart here.

Series [1] deals with human tumor cell models for RCC. The series is described as follows: In vitro 2D assay, all cell lines tested. It counts as cell-based. The conditions noted are these: 2D model; for IC50: Homo sapiens. The source says:
(§1) Cell lines RXF 1183L, RXF 1220L, RXF 1781L, RXF 393L and RXF 486L were established at Oncotest from the corresponding human patient-derived xenograft. The cell lines 786-O, A-498, Caki-1 and SN12C were purchased from NCI (National Cancer Institute, Bethesda, Md., USA). ACHN was purchased from ECACC (European Collection of Cell Cultures, Salisbury, UK). Authenticity of cell lines was confirmed at the DSMZ by STR (short tandem repeat) analysis, a PCR based DNA-fingerprinting methodology.
(§2) Cell lines were routinely passaged once or twice weekly and maintained in culture for up to 20 passages. All cells were grown at 37° C. in a humidified atmosphere with 5% CO2 in RPMI 1640 medium (25 mM HEPES, with L-glutamine, # FG1385, Biochrom, Berlin, Germany) supplemented with 10% (v/v) fetal calf serum (Sigma, Taufkirchen, Germany) and 0.1 mg/mL gentamicin (Life Technologies, Karlsruhe, Germany).
Bezafibrate was dissolved at a concentration of 100 mM in 100% Methanol and next 1:5 diluted with cell culture media (20 mM, 20% Methanol). Starting with this solution, serial dilutions (1:1.6) were prepared with cell culture medium. Next, 150 μL of the serial dilutions were transferred to the assay plates upon removing the cell culture media of each well (complete change of medium on assay plates). […] The maximum methanol concentrations were 6% and 10%. No precipitation was observed.
(§3) Cells were harvested from exponential phase cultures, counted and plated in 96-well flat-bottom microtiter plates at a cell density of 4,000-12,000 cells/well depending on the cell line's growth rate. After a 24 hour recovery period to allow the cells to resume exponential growth, test compounds were added. Compounds were applied at 8 to 10 concentrations in duplicate and treatment continued for 96 hour. After 96 hour treatment of cells, 20 μL/well CellTiter-Blue® reagent was added. Following an incubation period of up to four hours, fluorescence (FU) was measured by using the Enspire Multimode Plate Reader (excitation λ=531 nm, emission λ=615 nm).
(§4) For calculations, the mean values of duplicate/quadruplicate (untreated control) data were used. Sigmoidal concentration-response curves were fitted to the data points (T/C values) obtained for each cell line using 4 parameter non-linear curve fit.

Series [2] shares this test system. Put plainly: In vitro 3D clonogenic assay, all tumor models. The series is classed as cell-based. The settings on record: 3D model, geometric mean over 10 tumor models. As to the method:
Cell lines were routinely passaged one or twice weekly. All cells were grown at 37° C. in a humidified atmosphere with 5% CO2 in RPMI 1640 medium (Biochrom) supplemented with 10% (v/v) fetal calf serum and 0.1 mg/mL gentamicin. The percentage of viable cells was determined in a Neubauer-hemocytometer using trypan blue exclusion.
Tumor xenografts (patient-derived, as well as cell line-derived xenografts) were passaged as subcutaneous xenografts in NMRI nu/nu mice. At a tumor volume of 400-1,000 mm^3 tumor-bearing mice were sacrificed and tumors were collected under sterile conditions without delay according to the relevant Oncotest SOPs and the relevant animal welfare guidelines published by the FELASA and the GV-SOLAS. Tumors were mechanically disaggregated and subsequently incubated with an enzyme cocktail consisting of collagenase type IV (41 U/mL), DNase I (125 U/mL), hyaluronidase type III (100 U/mL), and dispase II (1.0 U/mL) in RPMI 1640 medium (Life Technologies) at 37° C. for 60-120 minutes. […] The percentage of viable cells was determined in a Neubauer-hemocytometer using trypan blue exclusion. […]
The clonogenic assay was carried out in a 96 well plate format using ultra low attachment plates. […] Cultures were incubated at 37° C. and 7.5% CO2 in a humidified atmosphere for 8 to 13 days and monitored closely for colony growth using an inverted microscope. […]

The subject of the next series is RXF 486L. Put plainly: In vitro 2D assay (CellTiter-Blue). It counts as cell-based. The conditions noted are these: Homo sapiens, 2D model, 96 hour treatment.
Description: as §1, §2
(§5) Bezafibrate was dissolved at a concentration of 100 mM in 100% Methanol and next 1:5 diluted with cell culture media (20 mM, 20% Methanol). Starting with this solution, serial dilutions (1:1.6) were prepared with cell culture medium. Next, 150 μL of the serial dilutions were transferred to the assay plates upon removing the cell culture media of each well (complete change of medium on assay plates). Thus the final test concentrations were 10,240, 6,400, 4,000, 2,500, 1,563, 977, 610, and 381 μM. The maximum methanol concentrations were 6% and 10%. No precipitation was observed.
as §3, §4
For orientation: Resazurin is reduced to fluorescent resorufin, in cell work by metabolically active cells.

For another series, the system named is RXF 1183L. The series is described as follows: In vitro 2D assay (CellTiter-Blue). The conditions noted are these: Homo sapiens, 2D model, 96 hour treatment. It counts as cell-based.
Description: as §1, §2, §5, §3, §4

The subject of a further series is RXF 1220L. The series is described as follows: In vitro 2D assay (CellTiter-Blue). The series is classed as cell-based. The settings on record: Homo sapiens, 2D model.
Description: as §1, §2, §5, §3, §4

Another series has as its system 786-O. Put plainly: In vitro 2D assay (CellTiter-Blue). It counts as cell-based. The settings on record: Homo sapiens, 786-0, 2D model, 96 hour treatment.
Description: as §1, §2, §5, §3, §4

Another series relates to RXF 393L. Put plainly: In vitro 2D assay (CellTiter-Blue). It counts as cell-based. The settings on record: Homo sapiens, 2D model, 96 hour treatment.
Description: as §1, §2, §5, §3, §4

The conditions of series [3]: background statement; cited from earlier work.
The mark [4] stands for this setting: second run 381 to 10,240 μM, read-out: Absolute IC50.

The IC50 is the concentration at which inhibition is half-maximal.

For `CC(C)(Oc1ccc(CCNC(=O)c2ccc(Cl)cc2)cc1)C(=O)O` [Bezafibrate], the “IC50 values, overall anti-cancer activity” value in series [1] (overall statement) is “low mM range”. Besides, the half-inhibitory concentration (IC50) in series [1] (geometric mean over 10 cell lines, second run 381 to 10,240 μM, read-out: Geometric mean absolute IC50) was 1220 µM; in series [1] (geometric mean over 10 cell lines, read-out: Geometric mean relative IC50), 1560 µM; in series [1] (first run 93 to 4,000 μM, read-out: Geometric mean absolute IC50) it was 1780 µM; in series [2] (read-out: Geometric mean absolute IC50), 945 µM; in series [2] (read-out: Geometric mean relative IC50) it was 985 µM; in the series on RXF 486L (read-out: Relative IC50), 1330 µM. The IC50 in the series with RXF 486L (setting [4]) is 987 µM; with RXF 1183L (setting [4]) it was 960 µM; in the series on RXF 1183L (read-out: Relative IC50), 1060 µM; with RXF 1220L (96 hour treatment, second run 381 to 10,240 μM, read-out: Absolute IC50), 1930 µM; in the series on RXF 1220L (96 hour treatment, read-out: Relative IC50), 2110 µM; with RXF 1220L (first run 93 to 4,000 μM, read-out: IC50) it was 3410 µM. Besides, the IC50 in the series with 786-O (setting [4]) came to 795 µM; in the series on 786-O (read-out: Relative IC50), 1070 µM; in the series on RXF 393L (setting [4]), 1040 µM; in the series with RXF 393L (read-out: Relative IC50), 1640 µM. In series [3], the “Absorption following oral administration” value is recorded as “well absorbed”.
